The values below are quoted from earlier work in patent US20130331260A1, “Odour-Control Superabsorbent” (BASF SE, priority 2012, published 2013).

Data set [1] deals with seed germination in urea-based fertiliser.

Regarding `NP(N)(=O)NC(=O)c1ccc(F)cc1` [fluorofamide, N-[Diaminophosphinyl]-4-fluorobenzamide], in data set [1], the “effect on seed germination compared with non-fluorinated analogue” value is “worked better than its non-fluorinated analogue in most cases”. For the same compound, the antibacterial properties result in the data set with Helicobacter sp. is “no measurable antibacterial properties”.
